Consider 3 compounds from patent US20090012326A1 (priority 2006, published 2009).

Series [1] concerns Wistar rats intoxicated with PQ.
Method: The study was performed using (n=84) adults male Wistar rats obtained from Charles River S. A. (Barcelona, Spain), with a mean weight of 250±10 g. Animals were randomly distributed in number of two per polypropylene cages with a stainless steel net at the top and wood chips at the screen bottom, in a air-conditioned room (alternate cycles of 12 hours light and darkness, room temperature 22±2° C. and with a relative humidity of 50-60%) at least one week (quarantine) before starting the experience in order to acclimate to their surrounding conditions. Animals were allowed access to tap water and rat chow ad libitum during the quarantine period. Housing and experimental treatment of animals were in accordance with National Institutes of Health guidelines (ILAR 1996). The experiments complied with the current laws of Portugal.
(§1) The biochemical and histological studies were carried out with 60 animals, randomly distributed to ten groups. Each animal was individually housed during the experimental period in a polypropylene cage with a stainless steel net at the top and wood chips at the screen bottom. Tap water and rat chow were given ad libitum during the entire experiment. […] Each group was treated as follows: (doses were given per Kg/body weight):
For the evaluation of survival rate, 24 animals were randomly divided into four groups (control, NaSAL, PQ and PQ+NaSAL) of six animals each. […]
The test system of series [2] is lung tissue of Wistar rats. To be noted: rat, in vivo.
Method: as §1
(I) Control group, n=6: animals treated with 0.9% NaCl. Animals were treated with one more administration of 0.9% NaCl two hours later and sacrificed 24 hours after the second injection;
(II) NaSAL group, n=18: animals treated with 0.9% NaCl. Animals were treated with one administration of NaSAL (200 mg/kg) two hours later and sacrificed 24 hours (n=6, NaSAL 24 h group), 48 hours (n=6, NaSAL 48 h group) and 96 hours (n=6, NaSAL 96 h group) after the second injection;
(III) PQ group, n=18: animals intoxicated with PQ (25 mg/kg). Animals were treated with one more administration of 0.9% NaCl two hours later and sacrificed 24 hours (n=6, PQ 24 h group), 48 hours (n=6, PQ 48 h group) and 96 hours (n=6, PQ 96 h group) after the second injection;
(IV) PQ+NaSAL group, n=18: animals intoxicated with PQ (25 mg/kg). Two hours later, animals were treated with NaSAL (200 mg/kg) and sacrificed 24 hours (n=6, PQ+NaSAL 24 h group), 48 hours (n=6, PQ+NaSAL 48 h group) and 96 hours (n=6, PQ+NaSAL 96 h group) after the second injection.
Two animals of each group were assigned to histological analysis. Lung samples were subjected to routine procedures for light microscopy (LM) and transmission electron microscopy (TEM) analysis. With the animals under anaesthesia, lung fixation was initiated in situ by perfusion through pulmonary artery, with 2.5% glutaraldehyde in 0.2 M sodium cacodylate buffer (pH 7.2-7.4) during 3 min. Subsequently, lungs were excised and sectioned into approximately 1 mm^3 cubic pieces. After two washing steps, of 30 minutes each with buffer solution, the specimens were dehydrated in graded alcohol for 2 hours, and then embedded in Epon resin. […]
The conditions of series [3]: cited from earlier work.

“Also recorded” adds a separate entry of the source.

In series [1] (PQ 25 mg/Kg i.p., sodium salicylate 200 mg/Kg i.p. two hours after PQ, 30 days after PQ), `O=C([O-])c1ccccc1O.[Na+]` [sodium salicylate, 2-hydroxybenzoic acid sodium salt] had a survival of 100%.
`C[n+]1ccc(-c2cc[n+](C)cc2)cc1.[Cl-].[Cl-]` [paraquat, 1,1′-dimethyl-4,4′-bipyridinium dichloride]: the lethality in series [1] (intraperitoneal PQ dose, absence of treatment, at the end of 6 days) is on record as 100%. In addition, in series [2], the “lung structure (light and electron micrographs)” value is “a marked vascular congestion and a notorious generalized alveolar collapse; also recorded: areas of necrosis of the alveolar wall and macrophages, cellular debris and inflammatory infiltrate within the alveolar space; also recorded: an intense vascular congestion as well as the presence of cellular debris and phagocytes within the alveolar space”.
As to `CC(=O)Oc1ccccc1C(=O)O` [acetylsalicylic acid], the “share of the total plasma salicylate in the acetylated form” value in series [3] (30 minutes after a dose of 0.65 g) is 27%. Also, the plasma half-life result in series [3] (in vivo) is on record as “about 15 min”.
